The source of these data is patent US4349545A, “Novel erythromycin a derivatives” (Roussel Uclaf, priority 1980, dated 1982).

The test system of assay [1] is Staphylococcus aureus UC 1128. The experiment in a line: serial dilution liquid medium MIC, Staphylococcus aureus UC 1128 pen-resistant. The following applies: UC1128; Staphylococcus aureus UC 1128 pen-resistant; 24 hours at 37° C.; read-out: minimum inhibiting concentration (MIC). It counts as cell-based. As to the method: (§1) The method was a serial dilution of liquid medium test wherein a series of tubes were prepared containing the same amount of sterile nutritive medium and increasing amounts of the test product was distributed in each tube. The tubes were then seeded with a bacterial strain and incubated for 24 hours in an oven at 37° C. The degree of inhibition was determined by transillumination to determine the minimum inhibiting concentration (MIC) express in μg/ml and the results are reported in the following Tables.

For assay [2], the system named is Staphylococcus aureus 1061. Nature of the assay: serial dilution liquid medium MIC, Staphylococcus aureus 1061 pen-sensibles. The following applies: 24 hours at 37° C., read-out: minimum inhibiting concentration (MIC). In kind it is cell-based. As to the method:
as §1

The test system of assay [3] is Streptococcus faecalis 5435. The experiment in a line: serial dilution liquid medium MIC, Streptococcus faecalis 5435. The following applies: Enterococcus faecalis, 24 hours at 37° C., read-out: minimum inhibiting concentration (MIC). It counts as cell-based. As to the method:
as §1

Assay [4] concerns Streptococcus faecalis 5432. The experiment in a line: serial dilution liquid medium MIC, Streptococcus faecalis 5432. It counts as cell-based. The following applies: Enterococcus faecalis, 24 hours at 37° C., read-out: minimum inhibiting concentration (MIC). As to the method: as §1
In assay [5] the test system is Streptococcus faecalis 99 F 74. The experiment in a line: serial dilution liquid medium MIC, Streptococcus faecalis 99 F 74. It counts as cell-based. The following applies: Enterococcus faecalis, 99F74, 24 hours at 37° C., read-out: minimum inhibiting concentration (MIC). As to the method:
as §1

Assay [6] relates to Streptococcus pyogenes A 561. The experiment in a line: serial dilution liquid medium MIC, Streptococcus pyogenes A 561. It counts as cell-based. To be noted: A561, 24 hours at 37° C., read-out: minimum inhibiting concentration (MIC). As to the method: as §1
In assay [7] the test system is Staphylococcus aureus exp. n° 54 146. The experiment in a line: serial dilution liquid medium MIC, Staphylococcus aureus exp. n° 54 146. It counts as cell-based. The following applies: Staphylococcus aureus exp. 54 146; 24 hours at 37° C.; read-out: minimum inhibiting concentration (MIC). As to the method: as §1
Assay [8] deals with Staphylococcus aureus No. 54,146. Nature of the assay: In vivo activity in mice experimentally infected with Staphylococcus aureus No. 54,146. To be noted: groups of 10 mice. As to the method:
The test was effected with the compounds of the invention and erythromycin as a reference on groups of 10 mice weighing about 21 g experimentally infected with Staphylococcus aureus No. 54,146 by intraperitoneal administration of 0.5 ml of a 22 hour culture of the said organism in bouillon with a pH of 7 diluted to 1/6 with physiological water. The test compounds were orally administrated to the mice 1,5 and 24 hours after the infection and the mortality on the 8th day was determined.

[9] abbreviates: dose 0,75mg oral, 1,5 and 24 hours after infection.
[10] abbreviates: dose 0,5mg oral, 1,5 and 24 hours after infection.
[11] abbreviates: dose 0,25mg oral, 1,5 and 24 hours after infection.

Converted amounts (≈) assume the structure as drawn. Bounds are passed on as bounds.

For the compound `CC[C@H]1OC(=O)[C@H](C)[C@@H](O[C@H]2C[C@@](C)(OC)[C@@H](O)[C@H](C)O2)[C@H](C)[C@@H](O[C@@H]2O[C@H](C)C[C@H](N(C)C)[C@H]2O)[C@](C)(O)C[C@@H](C)C(=NOCOCCN2CCOCC2)[C@H](C)[C@@H](O)[C@]1(C)O` [Example 26, 9-[0-{(2-(morpholin-4-yl)-ethoxy}-methyl)-oxime] of erythromycin], the MIC in assay [1] amounted to 0.1 µg/mL (≈ 0.112 µM); in assay [2], 0.6 µg/mL (≈ 0.673 µM); in assay [3] it was 1 µg/mL (≈ 1.12 µM); in assay [4], 0.2 µg/mL (≈ 0.224 µM); in assay [5], 0.2 µg/mL (≈ 0.224 µM); in assay [6] it was 0.1 µg/mL (≈ 0.112 µM). For the same compound, the MIC in assay [7] is 0.6 µg/mL (≈ 0.673 µM).

In the case of `CCSCCON=C1[C@H](C)C[C@@](C)(O)[C@H](O[C@@H]2O[C@H](C)C[C@H](N(C)C)[C@H]2O)[C@@H](C)[C@H](O[C@H]2C[C@@](C)(OC)[C@@H](O)[C@H](C)O2)[C@@H](C)C(=O)O[C@H](CC)[C@@](C)(O)[C@H](O)[C@H]1C` [Example 13, 9-[0-(2-ethylthioethyl)-oxime] of erythromycin], the MIC in assay [1] stood at 0.6 µg/mL (≈ 0.717 µM); in assay [2] it was 0.4 µg/mL (≈ 0.478 µM); in assay [3], 0.4 µg/mL (≈ 0.478 µM); in assay [4] it was 0.01 µg/mL (≈ 0.0119 µM); in assay [5], 0.1 µg/mL (≈ 0.119 µM); in assay [6] it was 0.02 µg/mL (≈ 0.0239 µM). Also, in assay [7], the MIC is 0.4 µg/mL (≈ 0.478 µM).

Take `CC[C@H]1OC(=O)[C@H](C)[C@@H](O[C@H]2C[C@@](C)(OC)[C@@H](O)[C@H](C)O2)[C@H](C)[C@@H](O[C@@H]2O[C@H](C)C[C@H](N(C)C)[C@H]2O)[C@](C)(O)C[C@@H](C)C(=NOCOCCN(C)C)[C@H](C)[C@@H](O)[C@]1(C)O` [Example 22, 9-[0-{(2-dimethylaminoethoxy)-methyl}-oxime] of erythromycin]: the MIC is 0.6 µg/mL (≈ 0.706 µM) in assay [1]; 0.4 µg/mL (≈ 0.471 µM) in assay [2]; 0.2 µg/mL (≈ 0.235 µM) in assay [3]; 0.05 µg/mL (≈ 0.0588 µM) in assay [4]; 0.05 µg/mL (≈ 0.0588 µM) in assay [5]; no more than 0.01 µg/mL in assay [6]. Also, the MIC in assay [7] stood at 0.4 µg/mL (≈ 0.471 µM).

Regarding `CC[C@H]1OC(=O)[C@H](C)[C@@H](O[C@H]2C[C@@](C)(OC)[C@@H](O)[C@H](C)O2)[C@H](C)[C@@H](O[C@@H]2O[C@H](C)C[C@H](N(C)C)[C@H]2O)[C@](C)(O)C[C@@H](C)C(=NOCCN)[C@H](C)[C@@H](O)[C@]1(C)O` [Example 45, 9-[O-(2-aminoethyl)-oxime] of erythromycin], the MIC in assay [1] is 1 µg/mL (≈ 1.26 µM); in assay [2] it was 0.6 µg/mL (≈ 0.758 µM); in assay [3], 0.2 µg/mL (≈ 0.253 µM); in assay [4], 0.4 µg/mL (≈ 0.505 µM); in assay [5], 0.1 µg/mL (≈ 0.126 µM); in assay [6], no more than 0.01 µg/mL. Besides, the MIC in assay [7] is 1 µg/mL (≈ 1.26 µM).

Turning to `CC[C@H]1OC(=O)[C@H](C)[C@@H](O[C@H]2C[C@@](C)(OC)[C@@H](O)[C@H](C)O2)[C@H](C)[C@@H](O[C@@H]2O[C@H](C)C[C@H](N(C)C)[C@H]2O)[C@](C)(O)C[C@@H](C)C(=NOCSc2ccccc2)[C@H](C)[C@@H](O)[C@]1(C)O` [Example 28, 9-[0-(phenylthiomethyl)-oxime] of erythromycin], the MIC was 0.6 µg/mL (≈ 0.689 µM) in assay [1]; 0.4 µg/mL (≈ 0.459 µM) in assay [2]; 0.4 µg/mL (≈ 0.459 µM) in assay [3]; 0.2 µg/mL (≈ 0.23 µM) in assay [4]; 0.2 µg/mL (≈ 0.23 µM) in assay [5]; 0.05 µg/mL (≈ 0.0574 µM) in assay [6]. Besides, in assay [7], the MIC was determined as 0.6 µg/mL (≈ 0.689 µM).

In the case of `CC[C@H]1OC(=O)[C@H](C)[C@@H](O[C@H]2C[C@@](C)(OC)[C@@H](O)[C@H](C)O2)[C@H](C)[C@@H](O[C@@H]2O[C@H](C)C[C@H](N(C)C)[C@H]2O)[C@](C)(O)C[C@@H](C)C(=NOCCN2CCCCC2)[C@H](C)[C@@H](O)[C@]1(C)O` [Example 34, 9-[O-(2{-piperidin-1-yl}-ethyl)-oxime] of erythromycin], the MIC was 0.6 µg/mL (≈ 0.698 µM) in assay [1]; 0.4 µg/mL (≈ 0.465 µM) in assay [2]; 0.2 µg/mL (≈ 0.233 µM) in assay [3]; 0.1 µg/mL (≈ 0.116 µM) in assay [4]; 0.05 µg/mL (≈ 0.0581 µM) in assay [5]; no more than 0.01 µg/mL in assay [6]. The MIC in assay [7] came out at 0.6 µg/mL (≈ 0.698 µM).

With `CC[C@H]1OC(=O)[C@H](C)[C@@H](O[C@H]2C[C@@](C)(OC)[C@@H](O)[C@H](C)O2)[C@H](C)[C@@H](O[C@@H]2O[C@H](C)C[C@H](N(C)C)[C@H]2O)[C@](C)(O)C[C@@H](C)C(=NOCCN2CCCC2)[C@H](C)[C@@H](O)[C@]1(C)O` [Example 32, 9-[0-(2-{pyrrolidin-1-yl}-ethyl)-oxime] of erythromycin], the MIC in assay [1] was 1 µg/mL (≈ 1.18 µM); in assay [2], 0.4 µg/mL (≈ 0.473 µM); in assay [3], 0.2 µg/mL (≈ 0.236 µM); in assay [4] it was 0.05 µg/mL (≈ 0.0591 µM); in assay [5], 0.1 µg/mL (≈ 0.118 µM); in assay [6], no more than 0.01 µg/mL. In addition, the MIC in assay [7] amounted to 0.6 µg/mL (≈ 0.709 µM).

Take `CC[C@H]1OC(=O)[C@H](C)[C@@H](O[C@H]2C[C@@](C)(OC)[C@@H](O)[C@H](C)O2)[C@H](C)[C@@H](O[C@@H]2O[C@H](C)C[C@H](N(C)C)[C@H]2O)[C@](C)(O)C[C@@H](C)C(=O)[C@H](C)[C@@H](O)[C@]1(C)O` [Erythromycin, erythromycin]: the “No. of mice living on the 8th day” value amounted to 5 mice in assay [8] (setting [9]); 9 mice in assay [8] (dose 1mg oral, 1,5 and 24 hours after infection); 10 mice in assay [8] (dose 2mg oral, 1,5 and 24 hours after infection); 9 mice in assay [8] (dose 1,5mg oral, 1,5 and 24 hours after infection).

Turning to `CC[C@H]1OC(=O)[C@H](C)[C@@H](O[C@H]2C[C@@](C)(OC)[C@@H](O)[C@H](C)O2)[C@H](C)[C@@H](O[C@@H]2O[C@H](C)C[C@H](N(C)C)[C@H]2O)[C@](C)(O)C[C@@H](C)C(=NOCCN(C(C)C)C(C)C)[C@H](C)[C@@H](O)[C@]1(C)O` [Example 41, 9-[O-(2-disopropylamino-ethyl)-oxime] of erythromycin], the MIC in assay [1] was found to be 1 µg/mL (≈ 1.14 µM); in assay [2] it was 0.5 µg/mL (≈ 0.571 µM); in assay [4], 0.2 µg/mL (≈ 0.228 µM); in assay [5], 0.2 µg/mL (≈ 0.228 µM); in assay [6] it was 0.05 µg/mL (≈ 0.0571 µM); in assay [7] it was 1 µg/mL (≈ 1.14 µM). In addition, the “No. of mice living on the 8th day” value is listed as 10 mice in assay [8] (setting [10]) and 9 mice in assay [8] (setting [11]).

Turning to `CC[C@H]1OC(=O)[C@H](C)[C@@H](O[C@H]2C[C@@](C)(OC)[C@@H](O)[C@H](C)O2)[C@H](C)[C@@H](O[C@@H]2O[C@H](C)C[C@H](N(C)C)[C@H]2O)[C@](C)(O)C[C@@H](C)C(=NOCCN(CC)CC)[C@H](C)[C@@H](O)[C@]1(C)O` [Example 31, 9-[0-(2-diethylaminoethyl)-oxime] of erythromycin], the MIC turned out to be 1 µg/mL (≈ 1.18 µM) in assay [1]; 0.5 µg/mL (≈ 0.59 µM) in assay [2]; 0.1 µg/mL (≈ 0.118 µM) in assay [4]; 0.1 µg/mL (≈ 0.118 µM) in assay [5]; 0.02 µg/mL (≈ 0.0236 µM) in assay [6]; 1 µg/mL (≈ 1.18 µM) in assay [7]. Also, the “No. of mice living on the 8th day” value in assay [8] (setting [10]) was determined as 10 mice; in assay [8] (setting [11]), 4 mice.

Turning to `CC[C@H]1OC(=O)[C@H](C)[C@@H](O[C@H]2C[C@@](C)(OC)[C@@H](O)[C@H](C)O2)[C@H](C)[C@@H](O[C@@H]2O[C@H](C)C[C@H](N(C)C)[C@H]2O)[C@](C)(O)C[C@@H](C)C(=NOCOCCCl)[C@H](C)[C@@H](O)[C@]1(C)O` [Example 21, 9-[0-{(2-chloroethoxy)-methyl}-oxime] of erythromycin], the MIC in assay [1] amounted to 0.2 µg/mL (≈ 0.238 µM); in assay [2], 0.2 µg/mL (≈ 0.238 µM); in assay [4] it was 0.1 µg/mL (≈ 0.119 µM); in assay [5] it was 0.1 µg/mL (≈ 0.119 µM); in assay [6] it was 0.02 µg/mL (≈ 0.0238 µM); in assay [7], 0.2 µg/mL (≈ 0.238 µM). The “No. of mice living on the 8th day” value in assay [8] (setting [10]) is 6 mice; in assay [8] (setting [11]), 0 mice; in assay [8] (setting [9]), 10 mice.
